From PubChem BioAssay AID2060502 (Molecular Pharmacology Branch, DTP, NCI, 2025)

System: 885724-159-R-J1-PDC complex spheroid viability
Assay: Anticancer human tumor 885724-159-R-J1-PDC patient-derived pancreatic adenocarcinoma cell line growth inhibition [GQUAD]
Settings: for IC50: curve of first compound; for viability, T/C: stronger effect = lower value; active = viability on the fitted dose curve at most 10% of control; inactive = the rest
Source text: DNA G-quadruplex Stabilizer Agents in Combinations in Complex Spheroids
A high-throughput screen of multi-cell type tumor spheroids was designed to identify active combinations of DNA G-quadruplex stabilizer agents and targeted small molecules. Complex spheroids include a stromal component modeled by human endothelial cells (HUVEC) and fibroblasts modeled by human mesenchymal stem cells (MSCs). The concentration ranges selected for each drug and investigational agent were based upon clinically achievable concentrations if the clinical Cmax of the agent was known.
Compounds. The drugs and investigational agents: pidnarulex (CX-5461; NSC782164), APTO-253 (NSC789042), BRACO-19 (NSC847499), peposertib (NSC802822), ceralasertib (NSC780249), elimusertib (NSC800525), camonsertib (NSC841442), AZD-1390 (NSC803789), olaparib (NSC753686), talazoparib (NSC767125), ART-558 (NSC835418), sotorasib (NSC818433), MRTX-1133 (NSC836407), SN-38 (NSC673596), topotecan (NSC609699), etoposide (NSC141540), doxorubicin (NSC123127), gemcitabine (NSC613327), 5-fluorouracil (NSC19893), paclitaxel (NSC125973), vemurafenib (NSC761431), panobinostat (NSC761190), R-306465 (JNJ-16241199; NSC773264), adavosertib (NSC754352), TP-3654 (NSC805149), carboplatin (NSC241240), KSQ-4279 (NSC840948), and staurosporine (NSC755774) were obtained from the National Cancer Institute (NCI) Developmental Therapeutics Program Chemical Repository (34). The FDA-approved anticancer drug set is available from the NCI Developmental Therapeutics Program. […] The stock solutions were prepared in dimethyl sulfoxide (DMSO, Sigma-Aldrich, St. Louis, MO, cat. D2650) at 800-fold the tested concentration and stored at -70 degrees C prior to their use. All drugs and investigational agents were tested over a range starting from a high concentration at or near the clinical Cmax and decreasing in half-log increments. If the clinical Cmax for an agent had not been determined, the highest concentration tested was 10 microM.
2.3 Cell Culture. All cells were maintained in an incubator at 37 degrees C and 5% CO2 with 95% humidity. The PDC lines were cultured according to standard operating procedures established by the NCI PDMR. All PDCs were thawed and cultured in Matrigel-coated flasks prepared with a working solution of 1X Ham's F-12 nutrient mix, without supplementation (Invitrogen, cat. 11765054), 100 U/mL penicillin-streptomycin (Invitrogen, cat. 15140122), and 2.5% Matrigel (Corning Inc., cat. 354248) for the first three passages. The 857933-349-R-J2-PDC line was cultured in 6C/Colon 1B media, which includes advanced DMEM/F-12 (Thermo Fisher Scientific, cat. 12634028), 10 mM HEPES (Thermo Fisher Scientific, cat. 15630080), 1X GlutaMAX supplement (Thermo Fisher Scientific, cat. 35050061), 0.1 mg/mL primocin (InvivoGen, cat. ant-pm-2), 10% defined fetal bovine serum, heat inactivated (HyClone Laboratories Inc., cat. SH30070.03HI), 50% L-WRN conditioned media (ATCC, cat. CRL-3276), 1.25 mM N-Acetyl-L-cysteine (Sigma-Aldrich, cat. A9165), 10 mM nicotinamide (Sigma-Aldrich, cat. N0636), 1X B-27 supplement (Thermo Fisher Scientific, cat. 17504044), 1X N-2 supplement (Thermo Fisher Scientific, cat. 17502048), 10 microM Y-27632 dihydrochloride (Tocris Bioscience, cat. 1254), and 50 ng/mL human EGF recombinant protein (Thermo Fisher Scientific, cat. PHG0311). The 485176-168-R4-J1-PDC line was cultured in Panc media, which includes all 6C/Colon 1B media components plus 100 ng/mL human FGF-10 (Thermo Fisher Scientific, cat. 100-26), 500 nM SB-431542 (Selleckchem, cat. S1067), and gastrin (Tocris, cat. 3006).
[…]
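Also: spheroids exposed to agents for seven days before readout.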
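For viability, T/C in this document: percent of vehicle control viability where 100% = DMSO wells.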

CC(C)n1c(=O)n(C)c2cnc3cc(F)c(-c4ccc(OCCCN5CCCCC5)nc4)cc3c21 + CN(C)c1ccc(Nc2c3ccc(NC(=O)CCN4CCCC4)cc3nc3cc(NC(=O)CCN4CCCC4)ccc23)cc1
inactive: viability, T/C (second compound 0.0316 µM, first compound 0.0316 µM) 105% | viability, T/C (second compound 0.0316 µM, first compound 0.1 µM) 111% | viability, T/C (second compound 0.0316 µM, first compound 0.316 µM) 100% | viability, T/C (second compound 0.0316 µM, first compound 1 µM) 91.7% | viability, T/C (second compound 0.0316 µM, first compound 3.16 µM) 97% | viability, T/C (second compound 0.0316 µM, first compound 10 µM) 56% | viability, T/C (second compound 0.1 µM, first compound 0.0316 µM) 109% | viability, T/C (second compound 0.1 µM, first compound 0.1 µM) 107% | viability, T/C (second compound 0.1 µM, first compound 0.316 µM) 112% | viability, T/C (second compound 0.1 µM, first compound 1 µM) 101% | viability, T/C (second compound 0.1 µM, first compound 3.16 µM) 88.2% | viability, T/C (second compound 0.1 µM, first compound 10 µM) 68.2% | viability, T/C (second compound 0.316 µM, first compound 0.0316 µM) 107% | viability, T/C (second compound 0.316 µM, first compound 0.1 µM) 101% | viability, T/C (second compound 0.316 µM, first compound 0.316 µM) 92.2% | viability, T/C (second compound 0.316 µM, first compound 1 µM) 91.3% | viability, T/C (second compound 0.316 µM, first compound 3.16 µM) 85.2% | viability, T/C (second compound 0.316 µM, first compound 10 µM) 56.2% | viability, T/C (second compound 1 µM, first compound 0.0316 µM) 92.6% | viability, T/C (second compound 1 µM, first compound 0.1 µM) 83.4% | viability, T/C (second compound 1 µM, first compound 0.316 µM) 101% | viability, T/C (second compound 1 µM, first compound 1 µM) 82.7% | viability, T/C (second compound 1 µM, first compound 3.16 µM) 74.5% | viability, T/C (second compound 1 µM, first compound 10 µM) 54.3% | viability, T/C (second compound 3.16 µM, first compound 0.0316 µM) 83.7% | viability, T/C (second compound 3.16 µM, first compound 0.1 µM) 80.2% | viability, T/C (second compound 3.16 µM, first compound 0.316 µM) 86.4% | viability, T/C (second compound 3.16 µM, first compound 1 µM) 64.1% | viability, T/C (second compound 3.16 µM, first compound 3.16 µM) 66.6% | viability, T/C (second compound 3.16 µM, first compound 10 µM) 46% | viability, T/C (second compound 10 µM, first compound 0.0316 µM) 78.7% | viability, T/C (second compound 10 µM, first compound 0.1 µM) 84.5% | viability, T/C (second compound 10 µM, first compound 0.316 µM) 60.3% | viability, T/C (second compound 10 µM, first compound 1 µM) 55.1% | viability, T/C (second compound 10 µM, first compound 3.16 µM) 33.3%
> 10 µM: IC50 (second compound 0.0316 µM) | IC50 (second compound 0.1 µM) | IC50 (second compound 0.316 µM) | IC50 (second compound 1 µM)
1.2 µM: IC50 (second compound 10 µM)
active: viability, T/C (second compound 10 µM, first compound 10 µM) 7.2%
7.97 µM: IC50 (second compound 3.16 µM)
